# Experimental data from ChEMBL document CHEMBL5032522, “N-2-(phenylamino) benzamide derivatives as novel anti-glioblastoma agents: Synthesis and biological evaluation” (Eur J Med Chem, 2021).
# pIC50: −log10 of the molar value. Active and inactive are the calls of the source. The calls are words filed in the database; no cut-off is given here.
# Key:
# DNA topoisomerase 1 = biological target: T1, DNA topoisomerase 1 (Homo sapiens, UniProt P11387); assay: Inhibition of human topoisomerase I using DNA pBR322 as substrate assessed as DNA relaxation incubated for 45 mins by ethidium bromide staining based agarose gel electrophoresis
# T1 sequence (P11387 whole entry): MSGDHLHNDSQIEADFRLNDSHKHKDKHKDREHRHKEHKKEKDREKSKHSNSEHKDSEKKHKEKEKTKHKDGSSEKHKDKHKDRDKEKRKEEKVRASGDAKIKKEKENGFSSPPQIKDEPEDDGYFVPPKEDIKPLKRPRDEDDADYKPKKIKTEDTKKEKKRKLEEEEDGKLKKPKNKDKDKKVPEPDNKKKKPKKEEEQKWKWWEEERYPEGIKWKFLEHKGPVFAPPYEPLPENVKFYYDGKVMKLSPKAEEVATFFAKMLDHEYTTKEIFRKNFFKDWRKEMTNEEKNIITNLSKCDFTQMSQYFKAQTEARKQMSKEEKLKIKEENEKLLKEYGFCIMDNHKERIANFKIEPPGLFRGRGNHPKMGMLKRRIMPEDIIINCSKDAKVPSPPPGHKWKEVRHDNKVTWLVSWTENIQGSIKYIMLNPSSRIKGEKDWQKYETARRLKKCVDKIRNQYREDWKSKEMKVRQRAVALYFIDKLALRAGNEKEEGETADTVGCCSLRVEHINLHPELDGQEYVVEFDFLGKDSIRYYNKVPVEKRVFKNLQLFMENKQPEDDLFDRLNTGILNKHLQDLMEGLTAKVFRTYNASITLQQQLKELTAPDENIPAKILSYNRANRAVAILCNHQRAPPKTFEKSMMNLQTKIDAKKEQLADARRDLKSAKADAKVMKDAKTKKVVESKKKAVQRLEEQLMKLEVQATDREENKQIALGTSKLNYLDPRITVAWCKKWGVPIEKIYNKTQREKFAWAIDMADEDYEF
# C6 = assay: Antitumor activity against rat C6 cells inoculated orthotopic Sprague-Dawley rat model assessed as tumor growth inhibition at 100 mg/kg, ip bid administered for 14 days by MRI scanner relative to control; format: functional; conditions: 336 h, time 14 day, read-out: TGI
# [1] = Toxicity in BALB/c mouse xenografted with human U-87 MG cells assessed as reduction in body weight at 20 mg/kg, ip bid measured after 25 days; format: organism-based; conditions: in vivo, 600 h, time 25 day
# Rattus norvegicus [2] = species on record: Rattus norvegicus; assay: Upregulation of E-cadherin protein expression in Sprague-Dawley rat orthotopic model inoculated with C6 cells by Western blot analysis; format: functional
# U-87 MG [3] = assay: Antitumor activity against human U-87 MG cells xenografted in BALB/c nude mouse assessed as reduction in Ki67 expression in tumor at 20 mg/kg, ip bid measured every 3 days for 25 days by immunohistochemical analysis; format: functional, organism-based; conditions: U-87MG ATCC, time 25.0 day
# U-87 MG [4] = assay: Antitumor activity against human U-87 MG cells xenografted in BALB/c nude mouse assessed as reduction in tumor weight at 20 mg/kg, ip bid measured every 3 days for 25 days; format: functional, organism-based; conditions: U-87MG ATCC, time 25.0 day
# U-87 MG [5] = assay: Antitumor activity against human U-87 MG cells xenografted in BALB/c nude mouse assessed as tumor growth inhibition at 20 mg/kg, ip bid measured every 3 days for 25 days relative to control; format: functional, U-87MG ATCC; conditions: 600 h, time 25 day, read-out: TGI
# Rattus norvegicus [6] = assay: In vivo inhibition of STAT3 activation in ip dosed orthotopic Sprague-Dawley rat model inoculated with C6 cells assessed as decrease in p-STAT3 in tumor tissue by Western blot analysis; format: functional, organism-based
# Rattus norvegicus [7] = species on record: Rattus norvegicus; assay: Downregulation of MMP-9 protein expression in Sprague-Dawley rat orthotopic model inoculated with C6 cells by Western blot analysis; format: functional
# [8] = Acute toxicity in Kunming mouse assessed as death at 300 mg/kg, ip administered as single dose observed every day for 14 days; format: organism-based; conditions: in vivo, 336 h, time 14 day
Compound,pIC50 (DNA topoisomerase 1),inhibition in vivo at 100 mg/kg (C6) [%],Activity [1],Activity (Rattus norvegicus [2]),Activity (U-87 MG [3]),Activity (U-87 MG [4]),inhibition in vivo at 20 mg/kg (U-87 MG [5]) [%],inhibition (Rattus norvegicus [6]),Activity (Rattus norvegicus [7]),Activity [8]
Cc1c(Cl)cccc1Nc1ccccc1C(=O)Nc1ccc2c(c1)OCO2,4.32,56.4,–,–,–,–,–,–,–,–
COc1ccc(NC(=O)c2ccccc2Nc2cccc(Cl)c2C)cc1,4.47,66.7,Non-Toxic,Active,Active,Active,69.4,Active,Active,Non-Toxic
